Measured values: patent US9044015B2, “Heterocyclic compounds as pesticides” (Bayer CropScience AG, priority 2010, dated 2015)

Key:
[1] = Determination of the log P values (formic acid method)
Experimental: 1) Description of Method for Determination of the log P Values (Formic Aid Method)
Eluents for determination in the acidic range (pH 3.4):
Eluent A: acetonitrile+1 ml of formic acid/liter. Eluent B: water+0.9 ml of formic acid/liter.
The lambda max values were determined in the maxima of the chromatographic signals using the UV spectra from 200 nm to 400 nm.

Meloidogyne incognita = Meloidogyne incognita test; assay type: in vivo; conditions: application rate 20 ppm; lettuce in sand with egg/larvae suspension
Experimental: Meloidogyne Incognita Test
Solvent: 80.0 parts by weight of acetone
Vessels are filled with sand, active ingredient solution, Meloidogyne incognita egg/larvae suspension and lettuce seeds. The lettuce seeds germinate and the plants develop. Galls develop on the roots.
After the desired time, the nematicidal action is determined by the gall formation in %. 100% means that no galls were found; 0% means that the number of galls on the treated plants corresponds to the untreated control.

Myzus persicae = test: Myzus test (spray treatment); assay type: in vivo; conditions: foliar, application rate 500 g/ha, sprayed Chinese cabbage leaf discs, all stages of green peach aphid, read-out: efficacy in % (aphids killed)
Experimental: Solvent 78 parts by weight of acetone • • 1.5 parts by weight of dimethylformamide
Emulsifier: 0.5 part by weight of alkylaryl polyglycol ether
To prepare an appropriate active ingredient preparation, 1 part by weight of active ingredient is mixed with the stated amounts of solvent and emulsifier, and the concentrate is diluted with emulsifier-containing water to the desired concentration.

[2] = test system: Myzus persicae organophosphate/carbamate resistant strain; test: Myzus spray test; conditions: application rate 100 ppm; after 6 days; sprayed aubergine plants; 100% = all insects killed
[3] = reverse-phase C18 HPLC column, pH 3.4, logP (HCOOH), final compounds table, HPLC reverse-phase C18, acidic range pH 3.4, 55° C.

Row | SMILES | chromatographic logP [1, 3] | chromatographic logP ([1]; pH 3.4, logP (HCOOH)) | pest or weed control at 500 g/ha (Myzus persicae) [%] | also measured
1 | COC(=N)c1cccc(-c2cnc(-c3cccnc3)s2)n1 [Compound 49] | – | – | – | efficacy in % [2]: 100%
2 | COC(=N)c1cccc(-c2cnc(-c3cncc(F)c3)s2)n1 [Compound 50, Methyl 6-[2-(5-fluoropyridin-3-yl)-1,3-thiazol-5-yl]pyridine-2-carboximidoate] | – | – | – | chromatographic logP ([1]; reverse-phase C18 HPLC column, pH 3.4, log P (HCOOH), preparation examples, HPLC-MS): 0.9; efficacy in % [2]: 100%
3 | O=C(NS(=O)(=O)c1ccccc1)c1cccc(-c2cnc(-c3cncc(F)c3)s2)n1 [Compound 13] | 2.94 | – | 100 | –
4 | CS(=O)(=O)NC(=O)c1cccc(-c2cnc(-c3cncc(F)c3)s2)n1 [Compound 9] | – | 2.05 | 100 | –
5 | CS(=O)(=O)NC(=O)c1cccc(-c2cnn(-c3cccnc3)c2)n1 [Compound 24] | – | 1.48 | 100 | –
6 | O=C(NS(=O)(=O)C(F)F)c1cccc(-c2cnc(-c3cncc(F)c3)s2)n1 [Compound 11] | 1.79 | – | 100 | –
7 | O=C(NS(=O)(=O)Cc1ccccc1)c1cccc(-c2cnc(-c3cncc(F)c3)s2)n1 [Compound 21] | – | 2.97 | 80 | –
8 | CCS(=O)(=O)Nc1cccc(-c2cnn(-c3cccnc3)c2)n1 [Compound 19] | – | 1.48 | 100 | –
9 | CS(=O)(=O)NC(=O)c1cccc(-c2cnc(-c3cncc(Cl)c3)s2)n1 [Compound 17] | 2.4 | – | 100 | –
10 | CS(=O)(=O)NC(=O)c1cccc(-c2nnc(-c3cncc(F)c3)s2)n1 [Compound 3, 6-[5-(5-Fluoropyridin-3-yl)-1,3,4-thiadiazol-2-yl]-N-(methylsulphonyl)pyridine-2-carboxamide] | – | 1.79 | 100 | chromatographic logP ([1]; pH 3.4, log P (HCOOH)): 1.79
11 | CCS(=O)(=O)NC(=O)c1cccc(-c2cnn(-c3cncc(F)c3)c2)n1 [Compound 26] | – | 2.21 | 100 | –
12 | CS(=O)(=O)Nc1cccc(-c2cnn(-c3cccnc3)c2)n1 [Compound 1, N-{6-[1-(Pyridin-3-yl)-1H-pyrazol-4-yl]pyridin-2-yl}methanesulphonamide] | – | 1.26 | 80 | chromatographic logP ([1]; pH 3.4, log P (HCOOH)): 1.26
13 | CC(C)S(=O)(=O)NC(=O)c1cccc(-c2cnc(-c3cncc(F)c3)s2)n1 [Compound 20] | 2.61 | – | 100 | –
14 | CCS(=O)(=O)NC(=O)c1cccc(-c2cnc(-c3cncc(F)c3)s2)n1 [Compound 18] | 2.33 | – | 100 | –
15 | CS(=O)(=O)NC(=O)c1cccc(-c2cnc(-c3cncnc3)s2)n1 [Compound 8] | 1.48 | – | 100 | –
16 | COCCS(=O)(=O)Nc1cccc(-c2cnn(-c3cccnc3)c2)n1 [Compound 10] | – | 1.43 | 80 | –
17 | CCS(=O)(=O)NC(=O)c1cccc(-c2cnn(-c3cccnc3)c2)n1 [Compound 25] | – | 1.77 | 100 | –
18 | CS(=O)(=O)NC(=O)c1cccc(-c2cnn(-c3cncnc3)c2)n1 [Compound 22] | – | 1.38 | 100 | –
19 | O=C(NS(=O)(=O)C(F)(F)F)c1cccc(-c2cnc(-c3cncc(F)c3)s2)n1 [Compound 2, 6-[2-(5-Fluoropyridin-3-yl)-1,3-thiazol-5-yl]-N-[(trifluoromethyl)sulphonyl]pyridine-2-carboxamide] | – | 1.86 | 100 | chromatographic logP ([1]; pH 3.4, log P (HCOOH)): 1.86
20 | CCS(=O)(=O)NC(=O)c1cccc(-c2cnn(-c3cncnc3)c2)n1 [Compound 7] | – | 1.63 | 100 | –

Second part, led by results:

Row | chromatographic logP [1, 3] | chromatographic logP ([1]; pH 3.4, logP (HCOOH)) | SMILES | pest or weed control at 500 g/ha (Myzus persicae) [%] | also measured
21 | 2.38 | – | O=C(NS(=O)(=O)c1cccs1)c1cccc(-c2nnc(-c3cncc(F)c3)s2)n1 [Compound 75] | 100 | efficacy in % (nematicidal action by gall formation) (Meloidogyne incognita): 100%
22 | 3.08 | – | O=C(NS(=O)(=O)c1ccc(Cl)s1)c1cccc(-c2nnc(-c3cncc(F)c3)s2)n1 [Compound 78] | 100 | efficacy in % (nematicidal action by gall formation) (Meloidogyne incognita): 100%
23 | 2.07 | – | CCS(=O)(=O)NC(=O)c1cccc(-c2nnc(-c3cncc(F)c3)s2)n1 [Compound 70] | 100 | efficacy in % (nematicidal action by gall formation) (Meloidogyne incognita): 100%
24 | – | 1.16 | CS(=O)(=O)NC(=O)c1nc(-c2cnn(-c3cccnc3)c2)cs1 [Compound 45] | 90 | –
25 | – | 2.56 | C#CCN(C(=O)c1cccc(-c2cnc(-c3cncc(F)c3)s2)n1)S(C)(=O)=O [Compound 68] | 100 | –
26 | 1.9 | – | CN(C)S(=O)(=O)NC(=O)c1cccc(-c2cnc(-c3cncnc3)s2)n1 [Compound 62] | 80 | –
27 | – | 1.25 | CS(=O)(=O)NC(=O)c1csc(-c2cnn(-c3cccnc3)c2)n1 [Compound 36, N-(Methylsulphonyl)-2-[1-(pyridin-3-yl)-1H-pyrazol-4-yl]-1,3-thiazole-4-carboxamide] | 100 | chromatographic logP ([1]; pH 3.4, log P (HCOOH)): 1.25
28 | 2.28 | – | CS(=O)(=O)N(CC#N)C(=O)c1cccc(-c2cnc(-c3cncc(F)c3)s2)n1 [Compound 65] | 90 | –
29 | – | 2.58 | O=C(NS(=O)(=O)CC(F)(F)F)c1cccc(-c2cnc(-c3cncc(F)c3)s2)n1 [Compound 57] | 100 | –
30 | – | 2.31 | CC(C)S(=O)(=O)NC(=O)c1cccc(-c2nnc(-c3cncc(F)c3)s2)n1 [Compound 72] | 100 | –
31 | – | 1.97 | COCCS(=O)(=O)NC(=O)c1cccc(-c2nnc(-c3cncc(F)c3)s2)n1 [Compound 74] | 90 | –
32 | – | 1.66 | CS(=O)(=O)NC(=O)c1csc(-c2cnn(-c3cncc(F)c3)c2)n1 [Compound 37] | 90 | –
33 | – | 1.17 | CC(=O)NS(=O)(=O)c1cccc(-c2cnn(-c3cccnc3)c2)n1 [Compound 41, N-({6-[1-(Pyridin-3-yl)-1H-pyrazol-4-yl]pyridin-2-yl}sulphonyl)acetamide] | 100 | chromatographic logP ([1]; pH 3.4, log P (HCOOH)): 1.17
34 | 1.95 | – | CS(=O)(=O)NC(=O)c1cccc(-c2cnc(-c3cncc(C#N)c3)s2)n1 [Compound 51] | 100 | –
35 | 2.38 | – | CC(C)(C)S(=O)(=O)NC(=O)c1cccc(-c2nnc(-c3cncc(F)c3)s2)n1 [Compound 77] | 100 | –
36 | 2.77 | – | CC(C)(C)S(=O)(=O)NC(=O)c1cccc(-c2cnc(-c3cncc(F)c3)s2)n1 [Compound 56] | 100 | efficacy in % (nematicidal action by gall formation) (Meloidogyne incognita): 100%
37 | 1.96 | – | CN(C)S(=O)(=O)NC(=O)c1cccc(-c2cnn(-c3cccnc3)c2)n1 [Compound 27] | 100 | –
38 | 2.35 | – | O=C(NS(=O)(=O)C1CC1)c1cccc(-c2cnn(-c3cncc(F)c3)c2)n1 [Compound 29] | 100 | –
39 | – | 3.09 | CC(C)N(C)S(=O)(=O)NC(=O)c1cccc(-c2cnc(-c3cncc(F)c3)s2)n1 [Compound 60] | 100 | –
40 | – | 1.76 | O=C(NS(=O)(=O)C1CC1)c1cccc(-c2cnn(-c3cncnc3)c2)n1 [Compound 28] | 80 | –
41 | 2.28 | – | O=C(NS(=O)(=O)Cc1ccccc1)c1cccc(-c2cnn(-c3cncnc3)c2)n1 [Compound 34] | 90 | –
42 | – | 2.01 | CN(C)S(=O)(=O)NC(=O)c1cccc(-c2cnc(-c3cccnc3)s2)n1 [Compound 66] | 100 | –
43 | – | 2.14 | O=C(NS(=O)(=O)C1CC1)c1cccc(-c2nnc(-c3cncc(F)c3)s2)n1 [Compound 71] | 100 | –
44 | 3.41 | – | Cc1nc(Cl)sc1S(=O)(=O)NC(=O)c1cccc(-c2cnc(-c3cncc(F)c3)s2)n1 [Compound 59] | 100 | –
45 | – | 3.47 | CC(C1CC1)N(C)S(=O)(=O)NC(=O)c1cccc(-c2cnc(-c3cncc(F)c3)s2)n1 (centres unmarked) [Compound 61] | 100 | –
46 | – | 1.3 | CC(=O)NS(=O)(=O)c1cccc(-c2cnc(-c3cccnc3)s2)n1 [Compound 69, N-({6-[2-(Pyridin-3-yl)-1,3-thiazol-5-yl]pyridin-2-yl}sulphonyl)acetamide] | 100 | chromatographic logP ([1]; pH 3.4, log P (HCOOH)): 1.3
